According to patent publication US10131652B2, “Pyrimidinyloxy benzene derivatives as herbicides” (E. I. DU PONT DE NEMOURS AND COMPANY, priority 2014, dated 2018):

Key:
Type in all cases: in vivo
[1] = test system: barnyardgrass (Echinochloa crus-galli); assay: Test B pre-/postemergence plant response
Summary of the method: (§1)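 Steps: plant seeds in loam soil–sand mix; spray soil preemergence, and in parallel spray 2–10 cm one- to two-leaf plants postemergence; hold ~10 days in greenhouse; visually rate injury against untreated controls (0 = no effect, 100 = complete control).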

corn (Zea mays) = assay: Test B pre-/postemergence plant response
Summary of the method: as §1

[2] = test system: pigweed (Amaranthus retroflexus); assay: Test B pre-/postemergence plant response
Summary of the method: as §1

[3] = test system: wheat (Triticum aestivum); assay: Test B pre-/postemergence plant response
Summary of the method: as §1

[4] = test system: giant foxtail (Setaria faberii); assay: Test B pre-/postemergence plant response
Summary of the method: as §1

[5] = test system: ducksalad (Heteranthera limosa); assay: Test C flooded paddy test plant response; conditions: Flood, 250 g ai/ha; scale of 0 to 100 where 0 is no effect and 100 is complete control; 13 to 15 days
Summary of the method: (§2)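 2-leaf plants; flood 3 cm, cpd into paddy water; greenhouse 13–15 d; visual score vs untreated, 0 = no effect, 100 = complete control; dash = no result.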

[6] = test system: barnyardgrass (Echinochloa crus-galli); assay: Test C flooded paddy test plant response; conditions: Flood, 250 g ai/ha; scale of 0 to 100 where 0 is no effect and 100 is complete control; 13 to 15 days
Summary of the method: as §2

[7] = test system: small-flower umbrella sedge (Cyperus difformis); assay: Test C flooded paddy test plant response; conditions: Flood, 250 g ai/ha; scale of 0 to 100 where 0 is no effect and 100 is complete control; 13 to 15 days
Summary of the method: as §2

rice (Oryza sativa) = assay: Test C flooded paddy test plant response; conditions: Flood, 250 g ai/ha; scale of 0 to 100 where 0 is no effect and 100 is complete control; 13 to 15 days
Summary of the method: as §2

[8] = test system: velvetleaf (Abutilon theophrasti); assay: Test D pre-/postemergence plant response; conditions: Postemergence; for Plant response rating (scale 0 to 100), Velvetleaf: 16 g ai/ha; for Plant response rating, Velvetleaf: 125 g ai/ha
Summary of the method: (§3)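 Two application timings were run together: preemergence onto seeded loam–sand pots, and postemergence onto 1- to 4-leaf plants (2 to 18 cm) in peat/vermiculite medium with starter nutrients. Formulation was a non-phytotoxic solvent with surfactant. Ratings, 0 to 100, were made visually versus controls after 13 to 15 greenhouse days.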

[9] = test system: lambsquarters (Chenopodium album); assay: Test D pre-/postemergence plant response; conditions: Postemergence; for Plant response rating (scale 0 to 100), Lambsquarters: 16 g ai/ha; for Plant response rating, Lambsquarters: 125 g ai/ha
Summary of the method: as §3

[10] = test system: morningglory (Ipomoea coccinea); assay: Test D pre-/postemergence plant response; conditions: Postemergence; for Plant response rating (scale 0 to 100), Morningglory: 16 g ai/ha; for Plant response rating, Morningglory: 125 g ai/ha
Summary of the method: as §3

[11] = test system: winter wheat (Triticum aestivum); assay: Test D pre-/postemergence plant response; conditions: Postemergence; for Plant response rating (scale 0 to 100), Wheat: 16 g ai/ha; for Plant response rating, Wheat: 125 g ai/ha
Summary of the method: as §3

[12] = test system: johnsongrass (Sorghum halepense); assay: Test D pre-/postemergence plant response; conditions: Postemergence; for Plant response rating (scale 0 to 100), Johnsongrass: 16 g ai/ha; for Johnsongrass plant response rating: 31 g ai/ha, scale 0 to 100 (0 no effect, 100 complete control); for Plant response rating, Johnsongrass: scale 0 to 100, 0 no effect, 100 complete control
Summary of the method: as §3

soybean (Glycine max) = assay: Test D pre-/postemergence plant response; conditions: Postemergence; for Plant response rating (scale 0 to 100), Soybean: 16 g ai/ha; for Plant response rating, Soybean: 125 g ai/ha
Summary of the method: as §3

[13] = test system: waterhemp (common waterhemp, Amaranthus rudis); assay: Test D pre-/postemergence plant response; conditions: Postemergence; for Plant response rating (scale 0 to 100), Waterhemp: 16 g ai/ha; for Plant response rating, Waterhemp: 125 g ai/ha
Summary of the method: as §3

[14] = Postemergence, 1000 g ai/ha, 0 to 100 scale (0 no effect, 100 complete control)
[15] = Preemergence, 1000 g ai/ha, 0 to 100 scale (0 no effect, 100 complete control)
[16] = 31 g ai/ha, scale 0 to 100 (0 no effect, 100 complete control)
[17] = 62 g ai/ha, scale 0 to 100, 0 no effect, 100 complete control
[18] = scale 0 to 100, 0 no effect, 100 complete control
[19] = 31 g ai/ha, Preemergence, 0 to 100 scale where 0 is no effect and 100 is complete control
[20] = 125 g ai/ha, postemergence, 0 to 100 scale, 0 no effect, 100 complete control
[21] = Postemergence, 31 g ai/ha, 0 to 100 scale (0 no effect, 100 complete control)
[22] = Preemergence, 125 g ai/ha, 0 to 100 scale (0 no effect, 100 complete control)

FCc1cc(-c2c(Br)cccc2Oc2ncc(Cl)cn2)no1 [Compound 191]
Plant response rating, Barnyardgrass [1, 14]: 100 | Plant response rating, Barnyardgrass [1, 15]: 100 | Plant response rating, Corn (corn (Zea mays); [14]): 60 | Plant response rating, Pigweed [2, 14]: 100 | Plant response rating, Pigweed [2, 15]: 100 | Plant response rating, Wheat [3, 14]: 30 | Plant response rating, Foxtail, Giant [4, 14]: 100 | Plant response rating, Foxtail, Giant [4, 15]: 100 | Ducksalad plant response rating [5]: 80 | Barnyardgrass plant response rating [6]: 20 | Sedge, Umbrella plant response rating [7]: 85 | Rice plant response rating (rice (Oryza sativa)): 0 | Plant response rating (scale 0 to 100), Velvetleaf [8]: 15 | Velvetleaf plant response rating [8, 16]: 30 | Velvetleaf plant response rating [8, 17]: 30 | Plant response rating, Velvetleaf [8, 18]: 50 | Plant response rating (scale 0 to 100), Lambsquarters [9]: 50 | Lambsquarters plant response rating [9, 16]: 70 | Lambsquarters plant response rating [9, 17]: 70 | Plant response rating, Lambsquarters [9, 18]: 85 | Plant response rating (scale 0 to 100), Morningglory [10]: 65 | Morningglory plant response rating [10, 16]: 65 | Morningglory plant response rating [10, 17]: 60 | Plant response rating, Morningglory [10, 18]: 85 | Plant response rating (scale 0 to 100), Wheat [11]: 0 | Wheat plant response rating [11, 16]: 0 | Wheat plant response rating [11, 17]: 0 | Plant response rating, Wheat [11, 18]: 0 | Plant response rating (scale 0 to 100), Johnsongrass [12]: 5 | Johnsongrass plant response rating [12]: 5 | Plant response rating, Johnsongrass ([12]; 62 g ai/ha): 5 | Plant response rating, Johnsongrass ([12]; 125 g ai/ha): 5 | Plant response rating (scale 0 to 100), Soybean (soybean (Glycine max)): 45 | Soybean plant response rating (soybean (Glycine max); [16]): 65 | Soybean plant response rating (soybean (Glycine max); [17]): 75 | Plant response rating, Soybean (soybean (Glycine max); [18]): 95 | Plant response rating (scale 0 to 100), Waterhemp [13]: 25 | Waterhemp plant response rating [13, 16]: 60 | Waterhemp plant response rating [13, 17]: 70 | Plant response rating, Waterhemp [13, 18]: 65

Clc1cnc(Oc2ccccc2-c2cc(Cl)sn2)nc1 [Compound 192]
Plant response rating, Barnyardgrass [1, 14]: 100 | Plant response rating, Barnyardgrass [1, 15]: 100 | Plant response rating, Corn (corn (Zea mays); [14]): 30 | Plant response rating, Pigweed [2, 14]: 100 | Plant response rating, Pigweed [2, 15]: 100 | Plant response rating, Wheat [3, 14]: 30 | Plant response rating, Foxtail, Giant [4, 14]: 90 | Plant response rating, Foxtail, Giant [4, 15]: 100 | Ducksalad plant response rating [5]: 60 | Barnyardgrass plant response rating [6]: 0 | Sedge, Umbrella plant response rating [7]: 40 | Rice plant response rating (rice (Oryza sativa)): 0 | Plant response rating (scale 0 to 100), Velvetleaf [8]: 20 | Velvetleaf plant response rating [8, 16]: 20 | Velvetleaf plant response rating [8, 17]: 30 | Plant response rating, Velvetleaf [8, 18]: 55 | Plant response rating (scale 0 to 100), Lambsquarters [9]: 35 | Lambsquarters plant response rating [9, 16]: 50 | Lambsquarters plant response rating [9, 17]: 40 | Plant response rating, Lambsquarters [9, 18]: 75 | Plant response rating (scale 0 to 100), Morningglory [10]: 0 | Morningglory plant response rating [10, 16]: 0 | Morningglory plant response rating [10, 17]: 10 | Plant response rating, Morningglory [10, 18]: 45 | Plant response rating (scale 0 to 100), Wheat [11]: 0 | Wheat plant response rating [11, 16]: 0 | Wheat plant response rating [11, 17]: 5 | Plant response rating, Wheat [11, 18]: 5 | Plant response rating (scale 0 to 100), Johnsongrass [12]: 0 | Johnsongrass plant response rating [12]: 5 | Plant response rating, Johnsongrass ([12]; 62 g ai/ha): 5 | Plant response rating, Johnsongrass ([12]; 125 g ai/ha): 5 | Plant response rating (scale 0 to 100), Soybean (soybean (Glycine max)): 10 | Soybean plant response rating (soybean (Glycine max); [16]): 30 | Soybean plant response rating (soybean (Glycine max); [17]): 55 | Plant response rating, Soybean (soybean (Glycine max); [18]): 85 | Plant response rating (scale 0 to 100), Waterhemp [13]: 20 | Waterhemp plant response rating [13, 16]: 40 | Waterhemp plant response rating [13, 17]: 55 | Plant response rating, Waterhemp [13, 18]: 70

FC(Cl)(Cl)c1cc(-c2ccccc2Oc2ncc(Cl)cn2)no1 [Compound 198]
Plant response rating, Barnyardgrass [1, 19]: 10 | Plant response rating, Barnyardgrass [1, 20]: 50 | Plant response rating, Barnyardgrass [1, 21]: 10 | Barnyardgrass plant response rating [1, 22]: 40 | Plant response rating, Corn (corn (Zea mays); [20]): 20 | Plant response rating, Corn (corn (Zea mays); [21]): 10 | Plant response rating, Pigweed [2, 19]: 30 | Plant response rating, Pigweed [2, 20]: 100 | Plant response rating, Pigweed [2, 21]: 100 | Pigweed plant response rating [2, 22]: 100 | Plant response rating, Wheat [3, 20]: 10 | Plant response rating, Wheat [3, 21]: 0 | Plant response rating, Foxtail, Giant [4, 19]: 70 | Plant response rating, Foxtail, Giant [4, 20]: 90 | Plant response rating, Foxtail, Giant [4, 21]: 30 | Foxtail, Giant plant response rating [4, 22]: 90 | Ducksalad plant response rating [5]: 85 | Barnyardgrass plant response rating [6]: 40 | Sedge, Umbrella plant response rating [7]: 100 | Rice plant response rating (rice (Oryza sativa)): 25 | Plant response rating (scale 0 to 100), Velvetleaf [8]: 50 | Velvetleaf plant response rating [8, 16]: 45 | Velvetleaf plant response rating [8, 17]: 55 | Plant response rating, Velvetleaf [8, 18]: 55 | Plant response rating (scale 0 to 100), Lambsquarters [9]: 10 | Lambsquarters plant response rating [9, 16]: 55 | Lambsquarters plant response rating [9, 17]: 70 | Plant response rating, Lambsquarters [9, 18]: 75 | Plant response rating (scale 0 to 100), Morningglory [10]: 55 | Morningglory plant response rating [10, 16]: 55 | Morningglory plant response rating [10, 17]: 80 | Plant response rating, Morningglory [10, 18]: 85 | Plant response rating (scale 0 to 100), Wheat [11]: 0 | Wheat plant response rating [11, 16]: 0 | Wheat plant response rating [11, 17]: 5 | Plant response rating, Wheat [11, 18]: 5 | Plant response rating (scale 0 to 100), Johnsongrass [12]: 5 | Johnsongrass plant response rating [12]: 20 | Plant response rating, Johnsongrass ([12]; 62 g ai/ha): 35 | Plant response rating, Johnsongrass ([12]; 125 g ai/ha): 35 | Plant response rating (scale 0 to 100), Soybean (soybean (Glycine max)): 10 | Soybean plant response rating (soybean (Glycine max); [16]): 25 | Soybean plant response rating (soybean (Glycine max); [17]): 30 | Plant response rating, Soybean (soybean (Glycine max); [18]): 60 | Plant response rating (scale 0 to 100), Waterhemp [13]: 85 | Waterhemp plant response rating [13, 16]: 85 | Waterhemp plant response rating [13, 17]: 95 | Plant response rating, Waterhemp [13, 18]: 98
